PMC7583056, “Synthesis, Characterisation and In Vitro Anticancer Activity of Catalytically Active Indole-Based Half-Sandwich Complexes” (Molecules, 2020)

Key:
[1] = Stability in d6-DMSO by 1H-NMR; type: physicochemical; conditions: 1.1 mM; for Release of the ind-py ligand (decoordination rate): over 24 h; for Release of the ind-py ligand (decoordination rate) / Time to reach equilibrium with second species (DMSO-adduct): 1H-NMR; for Stability in DMSO (in words): 24 h, after equilibrium with DMSO-adduct
Experimental: Owing to the limited aqueous solubility of the complexes, all the reactivity experiments were performed using a mixture MeOD/D2O (1:1 v/v) as a solvent. The stability of complexes 1–4 in MeOD/D2O was studied via ^1H-NMR spectroscopy over a period of 24 h. […] The stability of complexes 1–4 in dimethylsulfoxide (DMSO;1.1 mM) was also studied by ^1H-NMR spectroscopy over a period of 24 h (Figure S1). […] The ligand ind-py is also stable in MeOD/D2O over 24 h (Figure S1E).
Complexes 1–4 were also dissolved in d6-DMSO (1.1 mM) and ^1H-NMR spectra were recorded at t ≤ 10 min, 12 h and 24 h.

[2] = system: A2780cisR cells; assay: Chemosensitivity assay (MTT) in A2780cisR cells; type: cell-based; conditions: for IC50: 24 h exposure + 48 h recovery, MTT, mean ± SD
Text: (§1) The antiproliferative activity of the ind-py ligand and of complexes 1–4 against ovarian cancer A2780 (cisplatin sensitive) and A2780cisR (cisplatin resistant) cell lines was studied. The IC50 values obtained for all the complexes are shown in Table 2, together with values for cisplatin, which was used as a positive control (untreated cells for 100% viability as negative control). […] One of the major limitations of existing anticancer drugs is their poor selectivity towards cancer cells. Comparing the response of the cancer cell lines to the normal PNT2 cells provides a preliminary indication towards the selectivity of the compounds.
(§2) In vitro chemosensitivity tests were performed against A2780, A2780cisR and PNT2 cells. Cells were routinely maintained as monolayer cultures in RPMI medium supplemented with 10% foetal calf serum, penicillin (100 I.U./mL) and streptomycin (100 μg/mL), sodium pyruvate (1 mM) and L-glutamine (2 mM). For chemosensitivity studies, cells were incubated in 96-well plates at a concentration of 7.5 × 10^3 cells per well and the plates were incubated for 24 h at 37 °C and a 5% CO2 humidified atmosphere prior to drug exposure.
(§3) Complexes were dissolved in DMSO to provide stock solutions, which were further diluted with media to provide a range of final concentrations. Drug-media solutions were added to cells (the final concentration of DMSO was less than 1% (v/v) in all cases) and incubated for 24 h at 37 °C and 5% CO2 humidified atmosphere. The drug-media was removed from the wells and the cells were washed with PBS (100 μL, twice), and 100 μL of complete fresh media were added to each well. The plates were further incubated for 48 h at 37 °C in a 5% CO2 humidified atmosphere to allow for a period of recovery. 3-(4,5-dimethylthiazol-2-yl)-2,5-diphenyltetrazolium bromide (MTT) (20 μL, 2.5 mg/mL) was added to each well and incubated for 2 h at 37 °C and 5% CO2 humidified atmosphere. All solutions were then removed and 100 μL of DMSO was added to each well in order to dissolve the purple formazan crystals. A Thermo Scientific Multiskan EX microplate photometer was used to measure the absorbance in each well at 570 nm. Cell survival was determined as the absorbance of treated cells divided by the absorbance of controls and expressed as a percentage. The IC50 values were determined from plots of % survival against drug concentration. Each experiment was repeated in triplicates of triplicates and a mean value was obtained and stated as IC50 (μM) ± SD. Cisplatin was also used as a positive control.

[3] = system: PNT2 cells; assay: Chemosensitivity assay (MTT) in PNT2 cells; type: cell-based; conditions: 24 h exposure + 48 h recovery, MTT; mean ± SD
Text: as §1, §2, §3

[4] = system: A2780 cells; assay: Cell viability of A2780 cells, co-incubation with N-acetylcysteine (NAC); type: cell-based; conditions: complex at IC50 concentration, NAC 0, 2, 5 and 10 mM
Experimental: In order to determine whether ROS formation is a plausible explanation for the activity of these compounds, A2780 cells were treated at IC50 concentrations of 1–4 in combination with increasing concentrations of N-acetylcysteine (NAC; 0, 2, 5 and 10 mM; Figure 4). NAC is a known compound that can act as an ROS scavenger in cells and can be used to counteract the effects of complexes that affect ROS levels. […] However, this effect is not observed with the Os and Ru analogues.
Cells were incubated in 96-well plates at a concentration of 7.5 × 10^3 cells per well and the plates were incubated for 24 h at 37 °C and a 5% CO2 humidified atmosphere prior to drug exposure. Complexes were dissolved in DMSO to provide stock solutions, which were further diluted with media to working concentrations. Solution of N-acetylcysteine (NAC) or sodium formate in media were also prepared. Drug-media solutions and NAC or sodium formate solutions were added to cells (final concentrations as follows: IC50 values for the complex; 0, 2, 5 and 10 mM for NAC; 0, 0.5, 1 and 2 mM for sodium formate; DMSO concentration was less than 1% (v/v) in all cases) and incubated for 24 h at 37 °C in a 5% CO2 humidified atmosphere. After 24 h of incubation, the drug-media was removed from the wells and the cells were washed with PBS (100 μL, twice), and 100 μL of complete fresh media were added to each well. The plates were further incubated for 48 h at 37 °C in a 5% CO2 humidified atmosphere to allow for a period of recovery. 3-(4,5-dimethylthiazol-2-yl)-2,5-diphenyltetrazolium bromide (MTT) (20 μL, 2.5 mg/mL) was added to each well and incubated for 2 h at 37 °C and 5% CO2 humidified atmosphere. All solutions were then removed and 100 μL of DMSO was added to each well in order to dissolve the purple formazan crystals. A Thermo Scientific Multiskan EX microplate photometer was used to measure the absorbance in each well at 570 nm. Cell survival was determined as the absorbance of treated cells divided by the absorbance of controls and expressed as a percentage.

[5] = system: 9-ethylguanine (9-EtG); assay: Binding constant towards 9-EtG by 1H-NMR titration; conditions: complex 1.1 mM in MeOD/D2O (1:1 v/v), non-linear fit
Experimental: Binding constant of complexes 1, 3 and 4 with 9-EtG were calculated using the non-linear ThordarsonFittingProgram (Table 1). The binding constant for complex 2 was not calculated due to solubility issues. The magnitude of the binding constants (10^3–10^4 M^−1) is low compared to the usually observed complexation constants in coordination chemistry (>>10^6 M^−1), and is in the range of binding constants observed in host-guest inorganic chemistry (e.g., via non-covalent interactions between a metalla-cage and an aromatic planar guest molecule).
The reactions of complexes 1–4 with 9-ethylguanine (9-EtG) and 9-methyladenine (9-MetA) were studied. MeOD solutions of complexes 1–4 (2.2 mM) were mixed with a solution of the corresponding nucleobase in D2O (4.4 mM) and the pH adjusted to 7.4 ± 0.2. Final concentrations of 1.1 mM for the complex and 2.2 mM for the nucleobase were obtained. ^1H-NMR spectra of the resulting mixture were recorded at t ≤ 10 min, 5 h and 24 h in MeOD/D2O (1:1 v/v).
A titration using 9-EtG at increasing concentrations was performed and the resulting samples were analysed using ^1H-NMR spectroscopy. Binding constants were calculated using the non-linear ThordarsonFittingProgram by plotting the chemical shift of the complex versus the concentration of 9-EtG. Alternatively, binding constant for complexes 3 and 4 was obtained by plotting the ratio of 9-EtG adduct/complex against the concentration of 9-EtG.

Row | SMILES | Release of the ind-py ligand (decoordination rate) [1] | IC50 [2] | IC50 [3] | Effect on cell viability in NAC-supplemented cells [4] | K9-EtG (binding constant towards 9-EtG) [5] | Time to reach equilibrium with second species (DMSO-adduct) [1] | Stability in DMSO (in words) [1] | Activity against A2780cisR compared with A2780 (cross-resistance) ([2]; comparison of IC50 values)
1 | Cc1c(C)c(C)[c-](C)c1C.[Cl-].[Rh+3].c1ccc(-c2cc3ccccc3[n-]2)nc1 [complex 1, [Cp*Rh(ind-py)Cl]] | 25% | 21.5 ± 3.5 µM | 34.7 ± 6.1 µM | significant decrease of the cell viability | 25600 M⁻¹ |  |  | 
2 | Cc1c(C)c(C)[c-](C)c1C.[Cl-].[Ir+3].c1ccc(-c2cc3ccccc3[n-]2)nc1 [complex 2, [Cp*Ir(ind-py)Cl]] | 25% | 32.7 ± 1.7 µM | 32.1 ± 3.9 µM | significant decrease of the cell viability |  |  |  | 
3 | Cc1ccc(C(C)C)cc1.[Cl-].[Ru+2].c1ccc(-c2cc3ccccc3[n-]2)nc1 [complex 3, [(p-cym)Ru(ind-py)Cl]] |  | 62.8 ± 5.3 µM | 54.3 ± 5.4 µM | not observed | 71600 M⁻¹ | less than 10 min | stable | 
4 | Cc1ccc(C(C)C)cc1.[Cl-].[Os+2].c1ccc(-c2cc3ccccc3[n-]2)nc1 [complex 4, [(p-cym)Os(ind-py)Cl]] |  | 21.5 ± 1.3 µM | 34.2 ± 2.2 µM | not observed | 95400 M⁻¹ | less than 10 min | stable | no significant difference in activity
